The supplement of paper PMC12592484

Experiments:
Assay in all cases: drug sensitivity score (DSS2, normalised partial AUC of dose-response, 72 h CellTiter-Glo viability) (DSS (dimensionless)); higher = more sensitive (stronger growth inhibition / cytotoxicity); extreme values may be limits of the assay
[1] = tested on: 22Rv1
In short: (§1)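 Cells were added to 384-well plates already holding compounds at five doses over a 10,000-fold range: low-passage primary prostate cancer-associated fibroblasts, PF179T, WPMY-1, LNCaP and 22Rv1. Viability was measured 72 h later by CellTiter-Glo 2.0 luminescence and scaled to vehicle and positive-control wells. The drug sensitivity score, computed in BREEZE, is a partial area under the fitted logistic dose–response curve divided by the log of its upper asymptote, with higher scores meaning greater sensitivity.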

[2] = tested on: CAF#1 (primary prostate cancer-associated fibroblasts of myCAF-like type)
In short: as §1

[3] = tested on: CAF#2 (primary prostate cancer-associated fibroblasts of iCAF-like type)
In short: as §1

[4] = tested on: CAF#3 (primary prostate cancer-associated fibroblasts of myCAF-like type)
In short: as §1

[5] = tested on: CAF#4 (primary prostate cancer-associated fibroblasts of iCAF-like type)
In short: as §1

[6] = tested on: CAF#5 (primary prostate cancer-associated fibroblasts of myCAF-like type)
In short: as §1

[7] = tested on: CAF#6 (primary prostate cancer-associated fibroblasts of iCAF-like type)
In short: as §1

[8] = tested on: CAF#7 (primary prostate cancer-associated fibroblasts of myCAF-like type)
In short: as §1

[9] = tested on: LNCAP
In short: as §1

[10] = tested on: PF179T
In short: as §1

[11] = tested on: WPMY-1
In short: as §1

| SMILES | drug sensitivity score [1] | drug sensitivity score [2] | drug sensitivity score [3] | drug sensitivity score [4] | drug sensitivity score [5] | drug sensitivity score [6] | drug sensitivity score [7] | drug sensitivity score [8] | drug sensitivity score [9] | drug sensitivity score [10] | drug sensitivity score [11] |
| --- | --- | --- | --- | --- | --- | --- | --- | --- | --- | --- | --- |
| C[C@@H](NC(=O)c1ncnc(N)c1Cl)c1ncc(C(=O)Nc2cc(C(F)(F)F)c(Cl)cn2)s1 [TAK-580] (tested concentration range 1-10000 nM) | 0 | 0 | 0 | 0.5 | 2.3 | 0 | 0 | 0.3 | 0.2 | 0 | 0.5 |
| Cc1cccc(-c2[nH]c(CNc3ccccc3F)nc2-c2ccc3ncnn3c2)n1 [TEW-7197] (tested concentration range 0.2-2500 nM) | 0 | 0.5 | 0 | 0.5 | 0 | 0.3 | 0 | 0 | 0 | 0 | 0 |
| Nc1nc(NC2CC2)cc(-c2cccc(Cl)c2Cl)n1 [TH588] (tested concentration range 2.5-25000 nM) | 4.2 | 2 | 2.7 | 3 | 2.7 | 1.7 | 1.9 | 0.5 | 6.5 | 2.8 | 7.9 |
| Clc1ccccc1C(c1ccccc1)(c1ccccc1)n1cccn1 [TRAM-34] (tested concentration range 0.1-1000 nM) | 0 | 0.8 | 0.1 | 0 | 0 | 0 | 0 | 0 | 0 | 0 | 0 |
| CC(=O)Nc1ccc(C(=O)Nc2ccccc2N)cc1 [Tacedinaline] (tested concentration range 0.1-1000 nM) | 0.1 | 1.8 | 2.3 | 3.3 | 0.5 | 2.5 | 0 | 0.6 | 0.6 | 0.9 | 0 |
| C=CC[C@@H]1/C=C(\C)C[C@H](C)C[C@H](OC)[C@H]2O[C@@](O)(C(=O)C(=O)N3CCCC[C@H]3C(=O)O[C@H](/C(C)=C/[C@@H]3CC[C@@H](O)[C@H](OC)C3)[C@H](C)[C@@H](O)CC1=O)[C@H](C)C[C@@H]2OC [Tacrolimus] (tested concentration range 1-10000 nM) | 2.3 | 0.9 | 2.7 | 0.2 | 0 | 0.9 | 2.3 | 2 | 6.8 | 0 | 1 |
| Cn1ncnc1[C@H]1c2n[nH]c(=O)c3cc(F)cc(c23)N[C@@H]1c1ccc(F)cc1 [Talazoparib] (tested concentration range 0.1-1000 nM) | 11.5 | 4.9 | 8 | 2.1 | 3.4 | 6.2 | 1.6 | 2.9 | 15.3 | 11.2 | 4 |
| C[C@@H]1CN(Cc2ccc(F)cc2)[C@@H](C)CN1C(=O)c1cc2c(C(=O)C(=O)N(C)C)cn(C)c2cc1Cl [Talmapimod] (tested concentration range 1-10000 nM) | 0 | 0 | 0 | 0 | 0 | 0 | 0 | 0 | 1.9 | 0 | 0 |
| COc1cc(Nc2ncc(F)c(Nc3ccc4c(n3)NC(=O)C(C)(C)O4)n2)cc(OC)c1OC [Tamatinib] (tested concentration range 1-10000 nM) | 0 | 10.9 | 9.7 | 1.7 | 5.8 | 6.4 | 0.8 | 3.2 | 0.8 | 8 | 6 |
| CC/C(=C(\c1ccccc1)c1ccc(OCCN(C)C)cc1)c1ccccc1 [Tamoxifen] (tested concentration range 1-10000 nM) | 3.7 | 0.1 | 1.3 | 2.5 | 1.1 | 2 | 2.6 | 1.9 | 4.1 | 0 | 5 |
| O[C@H]1CC[C@H](Nc2ncc3nc(Nc4c(F)cc(F)cc4F)n([C@H]4CCOC4)c3n2)CC1 [Tanzisertib] (tested concentration range 1-10000 nM) | 0 | 0 | 0 | 3.3 | 0 | 0 | 0.2 | 0 | 1.3 | 0 | 0 |
| COc1cccc2c1c(O)c(C(=O)N(C)c1ccc(C(F)(F)F)cc1)c(=O)n2C [Tasquinimod] (tested concentration range 1-10000 nM) | 0 | 0.3 | 3.5 | 0 | 0 | 3.4 | 4.4 | 5.8 | 0 | 0.4 | 0 |
| CCN(c1cc(-c2ccc(CN3CCOCC3)cc2)cc(C(=O)NCc2c(C)cc(C)[nH]c2=O)c1C)C1CCOCC1 [Tazemetostat] (tested concentration range 1-10000 nM) | 0 | 1 | 1.8 | 1.2 | 0.4 | 0.9 | 0.7 | 0 | 1.9 | 0 | 0 |
| Cn1nnc2c(C(N)=O)ncn2c1=O [Temozolomide] (tested concentration range 10-100000 nM) | 0 | 0 | 0 | 0 | 0 | 0 | 0 | 0 | 0 | 0 | 0 |
| CO[C@H]1C[C@@H]2CC[C@@H](C)[C@@](O)(O2)C(=O)C(=O)N2CCCC[C@H]2C(=O)O[C@H]([C@H](C)C[C@@H]2CC[C@@H](OC(=O)C(C)(CO)CO)[C@H](OC)C2)CC(=O)[C@H](C)/C=C(\C)[C@@H](O)[C@@H](OC)C(=O)[C@H](C)C[C@H](C)/C=C/C=C/C=C/1C [Temsirolimus] (tested concentration range 0-100 nM) | 16.7 | 10.6 | 10.1 | 4 | 9.9 | 11.8 | 5.5 | 6 | 11 | 9.8 | 6.6 |
| COc1cc([C@@H]2c3cc4c(cc3[C@@H](O[C@@H]3O[C@@H]5CO[C@@H](c6cccs6)O[C@H]5[C@H](O)[C@H]3O)[C@H]3COC(=O)[C@H]23)OCO4)cc(OC)c1O [Teniposide] (tested concentration range 1-10000 nM) | 0 | 0 | 0 | 0 | 0 | 0 | 0 | 0 | 0 | 0 | 0 |
| CN1CCC(COc2cnc(-c3cccc(Cn4nc(-c5cccc(C#N)c5)ccc4=O)c3)nc2)CC1 [Tepotinib] (tested concentration range 0.1-1000 nM) | 0 | 0 | 3.4 | 0 | 0.5 | 3 | 0 | 0 | 0 | 2.4 | 0.7 |
| O=C1CCC(N2C(=O)c3ccccc3C2=O)C(=O)N1 (stereo not given) [Thalidomide] (tested concentration range 1-10000 nM) | 0 | 0 | 0 | 0 | 0 | 0 | 0 | 0 | 0 | 0 | 0 |
| Nc1nc2[nH]cnc2c(=S)[nH]1 [Thioguanine] (tested concentration range 1-10000 nM) | 8.8 | 1.1 | 3.6 | 0.2 | 2.9 | 1.8 | 3.7 | 4.9 | 0.4 | 4.9 | 11.8 |
| O=c1sn(-c2cccc3ccccc23)c(=O)n1Cc1ccccc1 [Tideglusib] (tested concentration range 0.3-3000 nM) | 0 | 0 | 0.8 | 0 | 0 | 0 | 2.3 | 1.6 | 0 | 0 | 0 |
| Cn1cncc1[C@@](N)(c1ccc(Cl)cc1)c1ccc2c(c1)c(-c1cccc(Cl)c1)cc(=O)n2C [Tipifarnib] (tested concentration range 1-10000 nM) | 13.8 | 2.1 | 7.6 | 7.3 | 7 | 4.8 | 3.2 | 1.4 | 14.8 | 4.6 | 9.8 |
| COc1cc2nccc(Oc3ccc(NC(=O)Nc4cc(C)on4)c(Cl)c3)c2cc1OC [Tivozanib] (tested concentration range 1-10000 nM) | 1.6 | 6.2 | 7.7 | 6 | 4.6 | 6.9 | 4.2 | 6 | 4.8 | 3 | 4.6 |
| C[C@@H]1CCN(C(=O)CC#N)C[C@@H]1N(C)c1ncnc2[nH]ccc12 [Tofacitinib] (tested concentration range 0.5-5000 nM) | 0 | 1.3 | 1 | 1.6 | 0 | 0.4 | 0 | 0.1 | 0 | 0 | 0 |
| CC[C@@]1(O)C(=O)OCc2c1cc1n(c2=O)Cc2cc3c(CN(C)C)c(O)ccc3nc2-1 [Topotecan] (tested concentration range 1-10000 nM) | 24.5 | 8.9 | 10.3 | 4.8 | 8.1 | 6.9 | 4.8 | 5.3 | 22.7 | 8.7 | 14.6 |
| CC(C)C[C@@H](C(=O)N[C@H](C(=O)OC1CCCC1)c1ccccc1)[C@H](O)C(=O)NO [Tosedostat] (tested concentration range 1-10000 nM) | 4.4 | 0 | 0.6 | 1 | 0 | 3.5 | 2.7 | 5.1 | 8.6 | 1.2 | 9.3 |
